According to patent US12605305B2, “Application of citrate metal salt in endodontic treatment, and formulation obtained by preparation” (KUNMING QINGCHENG HEALTHCARE TECH LTD., priority 2020, dated 2026):
“Also recorded” adds a separate entry of the source. Read-outs that look alike come from different tables or passages of the source.

Tests used:
[1] = Compatibility of cationic antibacterial agent with EDTA-2Na solution; assay type: physicochemical; settings: 10% EDTA-2Na solution mixed 1:1 with 0.2% agent solution, room temperature, dark, 7 days
Method: (§1) Materials to be tested: sodium citrate, potassium citrate, lithium citrate, citric acid, EDTA-2Na.
(§2) Each of the citric acid metal salts to be tested was prepared as a 20% aqueous solution; the citric acid to be tested was prepared as a 20% aqueous solution; the EDTA-2Na to be tested was prepared as a 10% aqueous solution; and the cationic antibacterial agent to be tested was prepared as a 0.2% aqueous solution. Each of the prepared aqueous solutions of citrate metal salt (or citric acid aqueous solutions) was mixed with each of the prepared aqueous solutions of cationic antibacterial agent to be tested at a ratio of 1:1.
(§3) All the mixed solutions were stored at room temperature in dark and left standing for 7 days before observation.

[2] = Compatibility of cationic antibacterial agent with lithium citrate solution; assay type: physicochemical; settings: for Phenomenon (compatibility with lithium citrate solution): 20% lithium citrate solution mixed 1:1 with 0.2% agent solution, room temperature, dark, 7 days
Method: as §1, §2, §3

[3] = Compatibility of cationic antibacterial agent with sodium citrate solution; assay type: physicochemical; settings: for Phenomenon (compatibility with sodium citrate solution): 20% sodium citrate solution mixed 1:1 with 0.2% agent solution, room temperature, dark, 7 days
Method: as §1, §2, §3

[4] = Compatibility of cationic antibacterial agent with potassium citrate solution; assay type: physicochemical; settings: for Phenomenon (compatibility with potassium citrate solution): 20% potassium citrate solution mixed 1:1 with 0.2% agent solution, room temperature, dark, 7 days
Method: as §1, §2, §3

[5] = Compatibility of cationic antibacterial agent with citric acid solution; assay type: physicochemical; settings: 20% citric acid solution mixed 1:1 with 0.2% agent solution, room temperature, dark, 7 days
Method: as §1, §2, §3

[6] = cited from earlier work
[7] = Evaluation of the effect of removing smear layer in vitro (SEM of treated root canal specimens)
From the text: Healthy single premolars that need to be extracted for the purpose of clinical orthodontic extraction. Patient age: 14-25 years old. Inclusion criteria: single upright unobstructed root canal, fully developed apical foramen, no near-pulp caries or near-pulp fillings, no history of pulp therapy, no apical root resorption, no root fracture, and other defects, and no periodontal disease.
The soft tissue and calculus around the root of the isolated teeth were removed. The isolated teeth were cleaned and packed for high-temperature and high-pressure steam sterilization. Three sterilized isolated teeth were taken randomly and placed in 10 ml of BHI liquid culture medium, cultured at 37° C. for 24 h, and then taken out. With the naked eye, if the BHI liquid culture medium remains transparent, it is considered that the sterilization effect is reliable. If the BHI liquid culture medium is turbid, it is necessary to re-disinfect all samples and repeat the above steps. After confirmation of successful sterilization, the samples were stored at room temperature for later use.
The pulp chamber of the isolated teeth confirmed to be successfully sterilized was opened using a high-speed hand-piece with an emery ball bit with a diameter of 0.5 mm. After pulp extirpation, the root canal was dredged with an ISO standard #10 stainless steel hand K file, until the file tip that just penetrated the apical foramen was seen. The file was measured for length, from which 0.5 mm was subtracted to establish the working length of the root canal. Then the root canal preparation was performed using a Protaper Universal Engine with Nickel-titanium root canal file to 25/06. […]

[8] = root canal treated for 5 minutes

Molecule | Phenomenon (compatibility with EDTA-2Na solution) [1] | Phenomenon (compatibility with lithium citrate solution) [2] | Phenomenon (compatibility with sodium citrate solution) [3] | Phenomenon (compatibility with potassium citrate solution) [4] | Phenomenon (compatibility with citric acid solution) [5] | pH value ([6]; 5% citric acid solution) | pH value ([6]; 10% citric acid solution) | compatibility with lithium citrate (conclusion in words) [2] | compatibility with sodium citrate (conclusion in words) [3] | compatibility with potassium citrate (conclusion in words) [4] | effect of removing the smear layer [7, 8] | effect of removing the smear layer ([7]; treatment time as per figures (1, 5 and/or 10 min) or not stated)
CC(=O)O.CC(=O)O.NC(=N\CCCCCC/N=C(N)/N=C(\N)Nc1ccc(Cl)cc1)/N=C(\N)Nc1ccc(Cl)cc1 [chlorhexidine acetate, reference compound] | + | + | + | + | + |  |  |  |  |  |  | 
N=C(NCCCCCCNC(=N)NC(=N)Nc1ccc(Cl)cc1)NC(=N)Nc1ccc(Cl)cc1.O=C(O)[C@H](O)[C@@H](O)[C@H](O)[C@H](O)CO.O=C(O)[C@H](O)[C@@H](O)[C@H](O)[C@H](O)CO [chlorhexidine gluconate, reference compound] | + | + | + | + | + |  |  |  |  |  |  | 
O=C(O)CC(O)(CC(=O)O)C(=O)O [citric acid] |  |  |  |  |  | 1.93 | 1.91 |  |  |  |  | 
CCCCCCCCCCCC[N+](C)(C)Cc1ccccc1.[Br-] [dodecyl dimethyl benzyl ammonium bromide] | − | − | − | − | − |  |  | compatible | compatible | compatible |  | 
CCCCCCCCCCCC[N+](C)(C)Cc1ccccc1.[Cl-] [dodecyl dimethyl benzyl ammonium chloride] | − | − | − | − | − |  |  | compatible | compatible | compatible |  | 
CCCCCCCCCCCC[N+](C)(C)C.[Cl-] [dodecyl trimethyl ammonium chloride] | − | − | − | − | − |  |  | compatible | compatible | compatible |  | 
CCCCCCCCCCCCCCCC[n+]1ccccc1.[Cl-] [hexadecyl pyridinium chloride, reference compound] | − | − | − | − | − |  |  | compatible | compatible | compatible |  | 
O=P([O-])([O-])OP(=O)([O-])[O-].[K+].[K+].[K+].[K+] [potassium pyrophosphate] |  |  |  |  |  |  |  |  |  |  | could not improve the effect of the formulation on removing the smear layer | 
O=P(O)(O)OP(=O)(O)OP(=O)(O)O [sodium tripolyphosphate] |  |  |  |  |  |  |  |  |  |  | not helpful for sodium citrate to improve the effect of removing the smear layer | cannot be effective in removing the smear layer; also recorded: very poor effect of removing the smear layer
N-cocoyl-L-arginine ethyl ester-DL-pyrrolidone carboxylate | + | + | + | + | + |  |  |  |  |  |  | 
polydimethyl diallyl ammonium chloride | − | − | − | − | − |  |  | compatible | compatible | compatible |  | 
polyhexamethyl guanidine hydrochloride | + | + | + | + | + |  |  |  |  |  |  | 
polyhexamethylene biguanide hydrochloride | + | + | + | + | + |  |  |  |  |  |  | 
